Data published in ChEMBL document CHEMBL1201862, “PubChem BioAssay data set” (2004).
Activity calls are given as the source filed them.

What was measured:
Troponin, cardiac muscle = Troponin, cardiac muscle (Homo sapiens, UniProt P19429+P45379+P63316); test: Fluorescence-based biochemical high throughput dose response assay for activators of the calcium sensitivity of cardiac Regulated Thin Filaments (RTF). [Related pubchem assays (depositor defined):AID493008, AID493018, AID504382, AID504383]; format: protein-complex assay
[1] = target: T1, E3 ubiquitin-protein ligase XIAP (Homo sapiens, UniProt P98170); test: Counter Screen using XIAP-Bir3 for Chemical Antagonists of Bir1/2 domains of IAP-family anti-apoptotic proteins. [Related pubchem assays (depositor defined):AID1018, AID1449, AID1514, AID1638, AID1749, AID1750, AID488957, AID488963]
T1 sequence (P98170 whole entry): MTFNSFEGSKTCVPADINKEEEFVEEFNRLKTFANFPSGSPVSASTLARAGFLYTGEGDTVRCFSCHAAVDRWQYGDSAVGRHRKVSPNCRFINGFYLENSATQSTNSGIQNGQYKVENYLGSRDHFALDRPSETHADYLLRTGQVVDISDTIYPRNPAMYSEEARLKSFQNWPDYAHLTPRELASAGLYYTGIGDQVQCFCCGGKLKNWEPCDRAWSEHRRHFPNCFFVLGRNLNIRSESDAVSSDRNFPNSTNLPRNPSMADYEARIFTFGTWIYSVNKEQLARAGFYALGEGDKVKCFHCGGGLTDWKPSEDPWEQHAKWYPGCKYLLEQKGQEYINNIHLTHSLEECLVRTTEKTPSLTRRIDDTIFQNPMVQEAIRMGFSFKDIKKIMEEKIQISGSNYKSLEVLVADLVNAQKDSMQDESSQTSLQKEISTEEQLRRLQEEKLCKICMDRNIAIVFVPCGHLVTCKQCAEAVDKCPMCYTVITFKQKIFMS

[2] = target: T1, E3 ubiquitin-protein ligase XIAP; test: small molecules displacing peptide from XIAP – biochemical, IAP family, fluorescence polarization (AID 1018); format: functional
[3] = target: G-protein coupled receptor 55 (Homo sapiens, UniProt Q9Y2T6); test: inhibition of LPI-stimulated GPR55 beta-arrestin translocation – imaging, U2OS, beta-arrestin-GFP, LPI agonist, primary screen (AID 2013); format: functional;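 further: antagonist potency measured as reduced agonist-driven arrestin aggregation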
Sequence of G-protein coupled receptor 55 (Q9Y2T6 whole entry): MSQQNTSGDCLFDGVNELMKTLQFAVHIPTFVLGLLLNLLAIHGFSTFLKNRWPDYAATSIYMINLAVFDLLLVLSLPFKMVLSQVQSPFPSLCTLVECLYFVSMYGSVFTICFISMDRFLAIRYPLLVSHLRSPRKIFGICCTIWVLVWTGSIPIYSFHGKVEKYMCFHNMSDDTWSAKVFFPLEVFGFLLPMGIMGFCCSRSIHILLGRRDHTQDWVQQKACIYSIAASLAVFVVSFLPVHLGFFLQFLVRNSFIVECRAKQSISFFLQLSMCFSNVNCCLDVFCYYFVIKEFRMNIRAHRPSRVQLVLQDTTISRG

[4] = target: T2, High affinity choline transporter 1 (Homo sapiens, UniProt Q9GZV3); test: human choline transporter blockers, potency – cell-based, 5-point CRC, membrane potential dye, dose response (AID 504840); format: functional
T2 sequence (Q9GZV3 whole entry): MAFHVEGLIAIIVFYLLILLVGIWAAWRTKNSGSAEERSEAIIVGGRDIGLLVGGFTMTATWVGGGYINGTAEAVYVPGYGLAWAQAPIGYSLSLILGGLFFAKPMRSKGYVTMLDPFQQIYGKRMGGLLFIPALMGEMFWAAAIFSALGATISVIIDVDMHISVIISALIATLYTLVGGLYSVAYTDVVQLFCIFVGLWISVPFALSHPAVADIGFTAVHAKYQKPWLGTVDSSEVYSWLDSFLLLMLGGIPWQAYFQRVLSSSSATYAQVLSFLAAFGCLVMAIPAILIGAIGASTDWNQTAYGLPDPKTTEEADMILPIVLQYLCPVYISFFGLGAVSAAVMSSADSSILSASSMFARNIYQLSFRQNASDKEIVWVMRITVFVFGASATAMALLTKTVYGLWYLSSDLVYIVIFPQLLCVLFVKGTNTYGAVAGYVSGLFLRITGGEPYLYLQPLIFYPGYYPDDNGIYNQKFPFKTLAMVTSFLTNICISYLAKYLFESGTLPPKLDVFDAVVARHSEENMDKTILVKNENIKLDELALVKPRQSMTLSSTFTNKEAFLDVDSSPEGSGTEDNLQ

[5] = target: DNA dC->dU-editing enzyme APOBEC-3A (Homo sapiens, UniProt P31941); test: A3A deaminase inhibition for selectivity – biochemical, dose response (AID 504722); format: functional
Sequence of DNA dC->dU-editing enzyme APOBEC-3A (P31941 whole entry): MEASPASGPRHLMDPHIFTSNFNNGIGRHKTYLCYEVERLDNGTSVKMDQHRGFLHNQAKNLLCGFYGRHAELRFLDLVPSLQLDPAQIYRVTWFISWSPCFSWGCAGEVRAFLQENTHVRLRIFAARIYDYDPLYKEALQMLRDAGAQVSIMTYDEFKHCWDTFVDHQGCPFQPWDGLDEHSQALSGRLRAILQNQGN

[6] = target: DNA dC->dU-editing enzyme APOBEC-3G (Homo sapiens, UniProt Q9HC16); test: Dose Response confirmation of small molecule APOBEC3G DNA Deaminase Inhibitors via a fluorescence-based single-stranded DNA deaminase assay. [Related pubchem assays (depositor defined):AID493012, AID493028]; format: functional
Sequence of DNA dC->dU-editing enzyme APOBEC-3G (Q9HC16 whole entry): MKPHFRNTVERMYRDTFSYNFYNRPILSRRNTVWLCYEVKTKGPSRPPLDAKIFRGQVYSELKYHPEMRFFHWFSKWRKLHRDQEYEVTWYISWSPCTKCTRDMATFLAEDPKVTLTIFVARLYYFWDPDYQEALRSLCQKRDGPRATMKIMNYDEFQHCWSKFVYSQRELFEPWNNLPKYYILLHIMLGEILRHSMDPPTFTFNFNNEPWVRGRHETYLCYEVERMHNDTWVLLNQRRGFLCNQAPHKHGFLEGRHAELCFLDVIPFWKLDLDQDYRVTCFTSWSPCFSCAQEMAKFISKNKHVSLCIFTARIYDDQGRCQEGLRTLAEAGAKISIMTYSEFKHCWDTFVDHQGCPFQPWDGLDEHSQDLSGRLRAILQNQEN

SMILES | IC50 [1] | IC50 [2] | IC50 [3] | also measured
Cc1cc(N2CCCC2)ccc1C=C(C#N)C#N |  |  |  | EC50 (Troponin, cardiac muscle): 4.16 µM (active)
COc1nc(NS(=O)(=O)c2ccc(C)cc2)nc(C)c1Cl | > 100 µM (inactive) | > 100 µM (not active) |  | 
O=C(Nc1ccccc1N1CCOCC1)c1cc(-c2ccncc2)nc2ccccc12 |  |  | 4.89 µM (active) | 
O=C(O)CCN(Cc1ccccc1)S(=O)(=O)c1ccccc1Cl | > 100 µM (inactive) | > 100 µM (not active) |  | 
NNC(=O)COc1ccc(-c2[nH]nc(C(F)(F)F)c2-c2ccc(Br)cc2)c(O)c1 |  |  | 1.7 µM (active) | 
Cc1cccc(OCc2nc(C#N)c(NCCN(C)C)o2)c1 | > 100 µM (inactive) | > 100 µM (not active) |  | 
CCc1nnc(NS(=O)(=O)c2ccc(NC(=O)/C=C/c3ccccc3Cl)cc2)s1 |  |  | 1.99 µM (active) | IC50 [4]: 13.8 µM (active)
COCc1cc(C)c(C#N)c(S)n1 |  |  |  | IC50 [5]: > 100 µM (inactive); IC50 [6]: 14.1 µM (active)
O=C1c2ccsc2SCCN1Cc1ccc(F)cc1 |  |  |  | EC50 (Troponin, cardiac muscle): > 71.5 µM (inactive)
